Where two headings read alike, the source gives them in different places.
Target: T1, hFPR1 (Homo sapiens, UniProt P21462)
T1 construct: expressed in transfected cells
T1 sequence (P21462 1-350): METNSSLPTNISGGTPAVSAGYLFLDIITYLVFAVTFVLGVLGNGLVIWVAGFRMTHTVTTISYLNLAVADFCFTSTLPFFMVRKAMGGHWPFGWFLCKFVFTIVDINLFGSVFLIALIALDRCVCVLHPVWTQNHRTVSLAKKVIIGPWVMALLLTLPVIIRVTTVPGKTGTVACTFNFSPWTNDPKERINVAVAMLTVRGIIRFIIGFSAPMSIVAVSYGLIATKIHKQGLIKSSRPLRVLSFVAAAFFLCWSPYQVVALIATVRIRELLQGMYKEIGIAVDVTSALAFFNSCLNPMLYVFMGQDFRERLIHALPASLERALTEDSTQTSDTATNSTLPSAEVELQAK
Test: ERK1/2 phosphorylation (AlphaScreen SureFire) in hFPR1-FlpIn-CHO cells
Format: cell-based
Source text: cDNDA construct and generation of stable cell lines: cDNA in pcDNA3.1^+ encoding the human formyl peptide receptors (FPR) subtypes, hFPR1, hFPR2 and hFPR3 was obtained from Invitrogen. The sequences for 3 hFPR receptors were amplified by PCR and cloned into the Gateway entry vector, pDONR202™, using the BP clonase enzyme mix, according to the manufactures' instructions (Invitrogen Inc, Carlsbad, Calif., USA). All hFPR receptors constructs in pDONR201™ were subsequently transfected into the pEF5/FRT/V5/dest vector using the LR clonase enzyme mix (Invitrogen). Receptor constructs (pEF5/FRT/V5/dest) were used to transfect FIp-In CHO cells as described previously (Valant C et al., PNAS, 2014). Cells were selected using 500 μg/mL hydromycin to generate cell lines stably expressing each receptor construct. Cells were maintained and cultured in high glucose DMEM supplemented with 10% FBS, 16 mM HEPES and 500 μg/mL hydromycin at 37° C. under a humidified atmosphere containing 5% CO2.
In the various assays described below, cells were plated into 96-well transparent cell culture plates at 4×10^4 cells per well, cultured overnight in serum-free media at 37° C. in 5% CO2.
Measurement of extracellular signal regulated kinase 1 and 2 phosphorylation (pERK1/2): Initial ERK1/2 phosphorylation at Thr202/Tyr204 time-course experiments were performed to determine the time at which ERK1/2 phosphorylation was maximal after stimulation by each agonist. Cells were seeded onto transparent 96-well cell culture plates at 4×10^4 cells per well. After 6 h, cells were washed once with PBS, and then incubated in serum-free DMEM overnight, to allow FBS-stimulated phosphorylated ERK1/2 levels to subside. […] 10% (v/v) FBS was used as a positive control, with vehicle controls also included. The reaction was terminated by removal of study drugs and lysis of cells with 100 μL of SureFire lysis buffer (TGR Biosciences). Cell were lysed in SureFire lysis buffer and transferred to 384-well opaque proxiplates. Under low-light conditions, a 1:120 (v:v) dilution of AlphaScreen beads (both acceptor and donor):Surefire reaction buffer was prepared, which was mixed with the activation buffer in a ratio of 6:1 (v:v), respectively. Plates were incubated in the dark at 37° C. for 1 h before the fluorescence signal was measured by a Fusion-α plate reader (PerkinElmer Life and Analytical Sciences, Foster city, CA, USA) with standard AlphaScreen settings. Data were normalized to the maximal response elicited by 10% (v/v) FBS at the same time point.
Receptor mediated pERK1/2 levels were determined using the AlphaScreen™ ERK1/2 SureFire™ kit, as described previously (Keov, P et al., 2014). For all experiments, 10% FBS was used as internal positive control to stimulate pERK1/2, and which the maximum responses were used for normalization of data, whilst vehicle was used as negative control.
Data analysis: All data were analysed using GraphPad Prism 6.0 (GraphPad Software, San Deigo, Calif., USA). Where appropriate, concentration-response curves were fitted to derive the maximal agonist effect (Emax), and the ligand potency estimate (pEC50), where Emax is the maximal possible response of the system (not the agonist), basal is the basal level of response in the absence of agonist, and pEC50 is the negative logarithm of the agonist concentration that gives a response halfway between Emax and basal.
In the present study, FIp-IN CHO cells and Gateway plasmid were obtained from Invitrogen Inc (Carlsbad, Calif., USA). The sequences for all 3 known human FPRs (hFPR1, hFPR2 and hFPR3) were amplified by PCR and cloned into the Gateway entry vector, pDONR202TM, using the BP clonase enzyme mix, according to the manufacturers' instructions. The hFPR pDONR201TM constructs were subsequently transfected into the pEF5/FRT/V5/dest vector using the LR clonase enzyme mix (Invitrogen).

[1] = Table 9, read-out: potency (pEC50) pERK1/2, hFPR1-FlpInCHO cells in vitro (converted)

## CC(C)C1C(NC(=O)Nc2ccc(Cl)cc2)C(=O)N(c2ccccc2)N1C (centres unmarked) [BIDI-002]
10 μM, pilot timecourse
  Time of maximal ERK1/2 phosphorylation in hFPR1-CHO cells: 5 min
Table 2, percentage of ERK1/2 phosphorylation elicited by 10% FBS, read-out: Emax (%), ERK1/2 phosphorylation, hFPR1-Flpln-CHO
  Emax: 61 ± 9%
Table 2, read-out: pEC50, ERK1/2 phosphorylation, hFPR1-Flpln-CHO (converted)
  EC50: 67.6 nM
Table 8, normalized transduction coefficient, reference agonist Cmpd43
  ΔLog(τ/KA), ERK1/2 phosphorylation, hFPR1-Flpln-CHO: 0.0
Table 8, percent of response elicited by 10% FBS, read-out: Emax, ERK1/2 phosphorylation, hFPR1-Flpln-CHO
  Emax: 61 ± 9%
Table 8, read-out: pEC50, ERK1/2 phosphorylation, hFPR1-Flpln-CHO (converted)
  EC50: 63.1 nM
Table 8, transduction coefficient
  Log(τ/KA), ERK1/2 phosphorylation, hFPR1-Flpln-CHO: 7.3 ± 0.1
[1]
  EC50: 67.6 nM

## Cc1cc(Cc2cccnc2)c(=O)n(CC(=O)Nc2ccc(Cl)cc2)n1 [MIPS-0010396]
[1]
  EC50: 676 nM
Table 10, receptor not given
  ERK Rmax: 76 ± 2
Table 10, receptor not given, values of 10394/10396 equal the hFPR1 values of Table 9, read-out: ERK pEC50 (converted)
  EC50: 676 nM

From patent US10328075B2, “Method of treatment and compounds for use therein” (Baker Heart and Diabetes Institute, priority 2015, dated 2019)
